Read-outs that look alike come from different tables or passages of the source. Marks after values point to notes of the source that are not given here.
Test: logP by HPLC on reversed-phase columns (C 18), EEC directive 79/831 Annex V.A8
Assay type: physicochemical
Settings: for chromatographic logP: reversed-phase HPLC column (C 18)
Method: Calibration was carried out using unbranched alkan-2-ones (having from 3 to 16 carbon atoms) with known logP values (the logP values were determined by the retention times using linear interpolation between two successive alkanones).

[1] = LC-MS, neutral range, pH 7.8, 0.001 molar aqueous ammonium bicarbonate and acetonitrile
[2] = acidic range, pH 2.3, 0.1% aqueous phosphoric acid and acetonitrile
[3] = LC-MS, acidic range, pH 2.7, 0.1% aqueous formic acid and acetonitrile

Compound | log P (***) [1] | log P (*) [2] | log P (**) [3] | further results
Clc1cccc(Cc2csc(N=C3CCCCN3)n2)c1 [compound 70, 4-(3-chlorobenzyl)-N-[(2E/Z)-piperidin-2-ylidene]-1,3-thiazole-2-amine] | 3.36 | 1.58 | – | –
Brc1ccccc1-c1csc(N=C2CCCCN2)n1 [compound 48, 4-(2-bromophenyl)-N-[(2E/Z)-piperidin-2-ylidene]-1,3-thiazole-2-amine] | 3.25 | – | 1.58 | –
Cc1ccc(Oc2ccccc2-c2csc(N=C3CCCCN3)n2)cc1 [compound 79, 4-[2-(4-methylphenoxy)phenyl]-N-[(2E/Z)-piperidin-2-ylidene]-1,3-thiazole-2-amine] | 4.51 | 2.17 | – | –
Cc1cccc(-c2cccc(-c3csc(N=C4CCCCN4)n3)c2)c1 [compound 71, 4-(3′-methylbiphenyl-3-yl)-N-[(2E/Z)-piperidin-2-ylidene]-1,3-thiazole-2-amine] | 4.48 | 2.12 | – | –
COc1ccc(-c2csc(N=C3CCCCN3)n2)cc1 [compound 56, 4-(4-methoxyphenyl)-N-[(2E/Z)-piperidin-2-ylidene]-1,3-thiazole-2-amine] | – | 1.18* | – | –
Brc1ccc(-c2csc(N=C3CCCCN3)n2)cc1 [compound 3, 4-(4-bromophenyl)-N-[(2E/Z)-piperidin-2-ylidene]-1,3-thiazole-2-amine] | – | – | 1.67** | –
CC(=O)N1CCCCC1=Nc1nc(-c2cccc(F)c2F)cs1 [compound 37, 1-[(2E/Z)-2-{[4-(2,3-difluorophenyl)-1,3-thiazol-2-yl]imino}piperidin-1-yl]ethanone] | 3.63**; 3.63***; 3.63* | 3.63**; 3.63***; 3.63* | 3.63**; 3.63***; 3.63* | –
CC(C)(C)c1ccc(-c2csc(N=C3CCCCN3)n2)cc1 [compound 32, 4-(4-tert-butylphenyl)-N-[(2E/Z)-piperidin-2-ylidene]-1,3-thiazole-2-amine] | 4.35 | 2.2 | 2.2 | –
Cc1ccc(Oc2ccccc2-c2csc(N=C3CCCN3)n2)c(C)c1 [compound 95, 4-[2-(2,4-dimethylphenoxy)phenyl]-N-[(2E/Z)-pyrrolidin-2-ylidene]-1,3-thiazole-2-amine] | 2.48 | – | 2.52 | –
CC(=O)N1CCCCC1=Nc1nc(-c2ccc(Cl)cc2Cl)cs1 [compound 35, 1-[(2E/Z)-2-{[4-(2,4-dichlorophenyl)-1,3-thiazol-2-yl]imino}piperidin-1-yl]ethanone] | – | – | – | chromatographic logP (LC-MS, acidic range, pH 2.7, 0.1% aqueous formic acid and acetonitrile, read-out: log P (**)): 4.33; chromatographic logP (LC-MS, neutral range, pH 7.8, 0.001 molar aqueous ammonium bicarbonate and acetonitrile, read-out: log P (***)): 4.33; chromatographic logP (acidic range, pH 2.3, 0.1% aqueous phosphoric acid and acetonitrile, read-out: log P (*)): 4.33
CC(=O)N1CCCCC1=Nc1nc(-c2ccccc2Oc2ccc(F)cc2F)cs1 [compound 16, 1-[(2E/Z)-2-({4-[2-(2,4-difluorophenoxy)phenyl]-1,3-thiazol-2-yl}imino)piperidin-1-yl]ethanone] | 4.32 | 4.36 | 4.36 | –
Clc1ccc(-c2csc(N=C3CCCCN3)n2)cc1 [compound 2, 4-(4-chlorophenyl)-N-[(2E/Z)-piperidin-2-ylidene]-1,3-thiazole-2-amine] | – | – | 1.7** | –
C=CCOc1ccccc1-c1csc(N=C2CCCCN2)n1 [compound 22, N-[(2E/Z)-piperidin-2-ylidene]-4-[2-(prop-2-en-1-yloxy)phenyl]-1,3-thiazole-2-amine] | 3.45 | 1.83 | 1.83 | –
FC(F)(F)Oc1ccc(-c2csc(N=C3CCCCN3)n2)cc1 [compound 50, N-[(2E/Z)-piperidin-2-ylidene]-4-[4-(trifluoromethoxy)phenyl]-1,3-thiazole-2-amine] | – | – | 1.78** | –
Fc1ccc(F)c(-c2csc(N=C3CCCCN3)n2)c1 [compound 19, 4-(2,5-difluorophenyl)-N-[(2E/Z)-piperidin-2-ylidene]-1,3-thiazole-2-amine] | 3.16 | 1.58 | 1.58 | –
CCOc1ccccc1-c1csc(N=C2CCCCN2)n1 [compound 23, 4-(2-ethoxyphenyl)-N-[(2E/Z)-piperidin-2-ylidene]-1,3-thiazole-2-amine] | 3.35 | 1.77 | 1.77 | –
c1ccc(Oc2ccc(-c3csc(N=C4CCCCN4)n3)cc2)cc1 [compound 5, 4-(4-phenoxyphenyl)-N-[(2E/Z)-piperidin-2-ylidene]-1,3-thiazole-2-amine] | 3.97 | – | 2.17 | –
CC(C)(C)c1cc(Oc2ccccc2-c2csc(N=C3CCCN3)n2)ccc1Cl [compound 101, 4-[2-(3-tert-butyl-4-chlorophenoxy)phenyl]-N-[(2E/Z)-pyrrolidin-2-ylidene]-1,3-thiazole-2-amine] | 5.53 | 3.09 | 3.09 | –
Fc1cccc(F)c1Oc1ccccc1-c1csc(N=C2CCCCN2)n1 [compound 76, 4-[2-(2,6-difluorophenoxy)phenyl]-N-[(2E/Z)-piperidin-2-ylidene]-1,3-thiazole-2-amine] | 3.78 | 1.8 | – | –
FC(F)(F)c1ccccc1-c1csc(N=C2CCCCN2)n1 [compound 21, N-[(2E/Z)-piperidin-2-ylidene]-4-[2-(trifluoromethyl)phenyl]-1,3-thiazole-2-amine] | 3.25 | 1.76 | 1.76 | –
FC(F)(F)c1cc(Oc2ccccc2-c2csc(N=C3CCCCN3)n2)ccc1Cl [compound 14, 4-{2-[4-chloro-3-(trifluoromethyl)phenoxy]phenyl}-N-[(2E/Z)-piperidin-2-ylidene]-1,3-thiazole-2-amine] | 4.9 | 2.58 | 2.58 | –
Clc1ccc(Cc2ccccc2-c2csc(N=C3CCCCN3)n2)cc1Cl [compound 92, 4-[2-(3,4-dichloro-benzyl)phenyl]-N-[(2E/Z)-piperidin-2-ylidene]-1,3-thiazole-2-amine] | 5.07 | 2.36 | – | –
Fc1ccc(Cc2ccccc2-c2csc(N=C3CCCCN3)n2)c(F)c1 [compound 88, 4-[2-(2,4-difluorobenzyl)phenyl]-N-[(2E/Z)-piperidin-2-ylidene]-1,3-thiazole-2-amine] | 4.27 | 2.04 | – | –
Fc1ccc(-c2csc(N=C3CCCCN3)n2)cc1 [compound 54, 4-(4-fluorophenyl)-N-[(2E/Z)-piperidin-2-ylidene]-1,3-thiazole-2-amine] | – | 1.23* | – | –

More lines, main results first:

log P (***) [1] | log P (*) [2] | log P (**) [3] | Compound | further results
4.23 | 4.25 | 4.25 | CC(=O)N1CCCCC1=Nc1nc(-c2cccc(C(F)(F)F)c2F)cs1 [compound 38, 1-[(2E/Z)-2-({4-[2-fluoro-3-(trifluoromethyl)phenyl]-1,3-thiazol-2-yl}imino)piperidin-1-yl]ethanone] | –
– | – | 1.42** | Clc1cccc(Cl)c1-c1csc(N=C2CCCCN2)n1 [compound 51, 4-(2,6-dichlorophenyl)-N-[(2E/Z)-piperidin-2-ylidene]-1,3-thiazole-2-amine] | –
2.13 | 0.29 | – | Cc1cccc(-c2csc(N=C3CCCCN3)n2)n1 [compound 62, 4-(6-methylpyridin-2-yl)-N-[(2E/Z)-piperidin-2-ylidene]-1,3-thiazole-2-amine] | –
4.21 | 1.59 | – | Clc1cc(Cl)cc(-c2csc(N=C3CCCCN3)n2)c1 [compound 55, 4-(3,5-dichlorophenyl)-N-[(2E/Z)-piperidin-2-ylidene]-1,3-thiazole-2-amine] | –
– | – | 2** | Cc1cccc(-c2ccccc2-c2csc(N=C3CCCCN3)n2)c1 [compound 65, 4-(3′-methylbiphenyl-2-yl)-N-[(2E/Z)-piperidin-2-ylidene]-1,3-thiazole-2-amine] | –
3.27 | 1.51 | – | CC(c1ccccc1)c1csc(N=C2CCCCN2)n1 (stereo not drawn) [compound 73, 4-(1-phenylethyl)-N-[(2E/Z)-piperidin-2-ylidene]-1,3-thiazole-2-amine] | –
– | – | 1.38** | Brc1ccccc1-c1csc(N=C2CCCCN2)n1 [compound 107, 4-(2-bromophenyl)-N-[(2E/Z)-piperidin-2-ylidene]-1,3-thiazole-2-amine] | –
– | – | 1.53** | Brc1cccc(-c2csc(N=C3CCCCN3)n2)c1 [compound 106, 4-(3-bromophenyl)-N-[(2E/Z)-piperidin-2-ylidene]-1,3-thiazole-2-amine] | –
4.84 | 2.42 | 2.42 | Clc1ccc(Oc2ccccc2-c2csc(N=C3CCCCN3)n2)c(Cl)c1 [compound 11, 4-[2-(2,4-dichlorophenoxy)phenyl]N-[(2E/Z)-piperidin-2-ylidene]-1,3-thiazole-2-amine] | –
3.22 | 1.57 | 1.57 | Fc1cc(F)cc(-c2csc(N=C3CCCCN3)n2)c1 [compound 29, 4-(3,5-difluorophenyl)-N-[(2E/Z)-piperidin-2-ylidene]-1,3-thiazole-2-amine] | –
– | 2.16* | – | Clc1cccc(Oc2ccccc2-c2csc(N=C3CCCCN3)n2)c1 [compound 85, 4-[2-(3-chlorophenoxy)phenyl]-N-[(2E/Z)-piperidin-2-ylidene]-1,3-thiazole-2-amine] | –
– | 2.14* | – | Brc1ccc(Oc2ccccc2-c2csc(N=C3CCCCN3)n2)cc1 [compound 84, 4-[2-(4-bromophenoxy)phenyl]-N-[(2E/Z)-piperidin-2-ylidene]-1,3-thiazole-2-amine] | –
– | – | 1.75** | FC(F)(F)c1cccc(-c2csc(N=C3CCCCN3)n2)c1 [compound 105, N-[(2E/Z)-piperidin-2-ylidene]-4-[3-(trifluoromethyl)phenyl]-1,3-thiazole-2-amine] | –

— patent publication US20110053770A1, “SUBSTITUTED AMINOTHIAZOLES AND THEIR USE AS FUNGICIDES” (BAYER CROPSCIENCE AG, priority 2009, published 2011)
